Data as given in patent publication US20030206968A1, “Fungicidal mixtures” (priority 1999, published 2003).
Read-outs that look alike come from different tables or passages of the source.

Legend:
Assay type in all cases: in vivo
Botrytis cinerea = test: Apple fruit Botrytis test, Botrytis cinerea on apple fruits, 3 day residual
Protocol: 1. Apples (Malus X domestica Borkh.) variety Golden Delicious are disinfected by washing them briefly in 70% ethanol. After drying the apples are marked with four short equal-distant lines indicating the positions to be wounded.
2. Corresponding with the marks, four holes are poked around the apple equator with a pipette tip. 10 μl of the treatment solution are pipetted into each hole.
3. Three hours after application, 10 μl of a conidial suspension of Botrytis cinerea are pipetted into each. For incubation, the treated/inoculated apples are set up for five days.
4. Disease occurs as rotten apple tissue surrounding the inoculated wounds. The diameter of the rotten zone around each wound is measured.
1. Technical compounds are formulated in a solvent system consisting of 5% acetone and 0.05% Tween 20 in deionized water. Compounds are dissolved in acetone prior to dilution with water. Formulated compounds are prepared using deionized water.
2. Three kinds of controls are included:
Assessments of the diseases took place at the indicated day after the application of the compounds. Per cent infected leaf area infected was evaluated. The efficacy of the compounds/compounds mixtures to control the diseases was calculated by using the formula: [formula]
(§1) Synergy was calculated using the % disease control values of specific treatments for the two COLBY formula given hereinabove
Fungicidal efficacy of the mixture of Azolopyrimidine A+vinclozolin (3 day residual) against Botrytis cinerea on apple fruits The tank mix was obtained from technical material of Azolopyrimidine A and a WG formulation containing 500 g vinclozolin per kg.
Fungicidal efficacy of the mixture of Azolopyrimidine A+cyprodinil (3 day residual) against Botrytis cinerea on apple fruits The tank mix was obtained from technical material of Azolopyrimidine A and a WG formulation containing 750 g cyprodinil per kg.
Fungicidal efficacy of the mixture of Azolopyrimidine A+benomyl (3 day residual) against Botrytis cinerea on apple fruits The tank mix was obtained from technical material of Azolopyrimidine A and a WP formulation containing 500 g benomyl per kg.

Puccinia recondita = test: Greenhouse, Puccinia recondita on wheat, 1 day residual; settings: for pest or weed control at 0.06 ppm / pest or weed control at 0.25 ppm / pest or weed control at 1 ppm / pest or weed control at 4 ppm: Puccinia recondita, read-out: Observed Efficacy
Excerpt: (§2) The fungicides are applied in single treatments, or in a combination comprising an azolopyrimidine of formula I and a compound selected from the classes (A), (B) and (C) as defined above. The compounds are applied in form of an aqueous spray mix obtained from a concentrated formulation or the technical material.
(§3) 1. Seed is planted in 6 cm diameter plastic pots and maintained in the greenhouse.
(§4) 2. When the primary leaf is fully expanded in the case of cereals or several leaves are present in the case of dicots, formulated test compounds are sprayed with a three nozzle overhead fungicide sprayer to near run-off. Alternatively, a single nozzle overhead track sprayer is used for application of the compounds to cereals at a rate of 200 l/ha. Plants are then allowed to air-dry.
(§5) 3. Inoculation precedes treatment in the case of curative evaluations and follows treatment in case of residual evaluations. For inoculation of powdery mildew disease, plants are set up on greenhouse benches with bottom watering mats and inoculated by dusting them with conidia from infected plants. Between inoculation and treatment for curative evaluations and between treatment and inoculation for residual evaluations, plants are maintained in the greenhouse with bottom watering.
For inoculation of non-powdery mildew diseases, an aqueous spore suspension of the pathogen is applied to the plant and the plants are kept 1-2 days in a moist infection chamber before being returned to the greenhouse where they are maintained by bottom watering.
(§6) 4. Disease on the foliage as percent leaf area with disease symptoms/signs is evaluated about 7 days after inoculation. In the case of wheat, the tips and bases of the leaves are excluded from the evaluation. [formula]
(§7) 1. Technical compounds are formulated in a solvent/surfactant system consisting of 5% acetone and 0.05% Tween 20 in deionized water. Compounds are dissolved in acetone prior to addition of the water; the Tween 20 can be added through either the acetone or the water. Dilutions are made using the solvent/surfactant system. Formulated compounds are prepared using deionized water.
(§8) 2. Two kinds of controls are included: Plants treated with the solvent/surfactant solution and inoculated (Solvent Blank). Untreated plants which are inoculated (Inoculated Control).
(§9) Assessments of the diseases took place at the indicated day after the application of the compounds. Per cent infected leaf area infected was evaluated. The efficacy of the compounds/compounds mixtures to control the diseases was calculated by using the formula given above under item 4: […]
as §1
Fungicidal efficacy of the mixture of Azolopyrimidine C+metconazole (1 day residual) against Puccinia recondita on wheat The tank mix was obtained from a SC formulation containing 100 g Azolopyrimidine C per liter and an EC containing 100 g metconazole per liter. […]
Fungicidal efficacy of the mixture of Azolopyrimidine C+fluazinam (1 day residual) against Puccinia recondita on wheat The tank mix was obtained from technical material of Azolopyrimidine C and a SC formulation containing 500 g fluazinam per liter. […]

Blumeria graminis [1] = test: Greenhouse, Blumeria graminis on barley, 2 days curative; settings: Example 26
Protocol: as §2, with “The trials are carried out under greenhouse (Examples 1 to 32) or field conditions (Examples 33 to 40) in residual or curative applications. The fungicides” for “The fungicides”
as §3, §4, §5, §6, §7, §8, §9, §1
Fungicidal efficacy of the mixture of (S)-Azolopyrimidine C in admixture with Fenhexamid (2 days curative) against Blumeria graminis on barley. The tank mixes were obtained from technical material of (S)-Azolopyrimidine C and Fenhexamid.
Fungicidal efficacy of the mixture of (S)-Azolopyrimidine C in admixture with Azoxystrobin or Trifloxystrobin (2 days curative) against Blumeria graminis on barley. The tank mixes were obtained from technical material of (S)-Azolopyrimidine C and Azoxystrobin or Trifloxystrobin.

Blumeria graminis [2] = test: Greenhouse, Blumeria graminis on wheat, 1 day residual
Excerpt: as §2, §3, §4, §5, §6, §7, §8, §9, §1
Fungicidal efficacy of the mixture of Azolopyrimidine C+quinoxyfen (1 day residual)) against Blumeria graminis on wheat The tank mix was obtained from technical material of Azolopyrimidine C and quinoxyfen.
Fungicidal efficacy of the mixture of Azolopyrimidine C+metalaxyl (1 day residual) against Blumeria graminis on wheat The tank mix was obtained from technical material of Azolopyrimidine C and metalaxyl.
Fungicidal efficacy of the mixture of Azolopyrimidine C+famoxadone (1 day residual) against Blumeria graminis on wheat The tank mix was obtained from technical material of Azolopyrimidine C and famoxadone.

CCCCNC(=O)n1c(NC(=O)OC)nc2ccccc21 [benomyl]
Observed Efficacy (Botrytis cinerea; Example 6, dose rate 1 ppm): 0% | Observed Efficacy (Botrytis cinerea; Example 6, dose rate 10 ppm): 13%

CCCCCCCCCCCCNC(=N)N [dodine]
pest or weed control at 0.06 ppm (Puccinia recondita): 0%

CC1(C(=O)Nc2ccc(O)c(Cl)c2Cl)CCCCC1 [Fenhexamid]
Observed Efficacy (Blumeria graminis [1]; dose rate 0.74 ppm): 0% | Observed Efficacy (Blumeria graminis [1]; dose rate 2.2 ppm): 0% | Observed Efficacy (Blumeria graminis [1]; dose rate 6.7 ppm): 0% | Observed Efficacy (Blumeria graminis [1]; dose rate 20 ppm): 1% | Observed Efficacy (Blumeria graminis [1]; dose rate 60 ppm): 7% | Observed Efficacy (Blumeria graminis [1]; dose rate 180 ppm): 39%

Fc1ccc(Oc2ccnc3cc(Cl)cc(Cl)c23)cc1 [quinoxyfen]
pest or weed control at 0.06 ppm (Puccinia recondita; Example 15, dose rate 0.06 ppm): 0% | pest or weed control at 0.25 ppm (Puccinia recondita; Example 15, dose rate 0.25 ppm): 0% | pest or weed control at 1 ppm (Puccinia recondita; Example 15, dose rate 1 ppm): 0% | pest or weed control at 4 ppm (Puccinia recondita; Example 15, dose rate 4 ppm): 0% | Observed Efficacy (Blumeria graminis [2]; Example 16, dose rate 0.06 ppm): 8% | Observed Efficacy (Blumeria graminis [2]; Example 16, dose rate 0.25 ppm): 18% | Observed Efficacy (Blumeria graminis [2]; Example 16, dose rate 1 ppm): 73% | Observed Efficacy (Blumeria graminis [2]; Example 16, dose rate 4 ppm): 99%

S1SSSSSSS1 [sulfur]
pest or weed control at 1 ppm (Puccinia recondita; Example 22, dose rate 1 ppm): 0%

[Cl-].[Cu+2].[Cu+2].[OH-].[OH-].[OH-] [copper oxychloride]
Observed Efficacy (Puccinia recondita; Example 21, dose rate 0.06 ppm): 0%

O=[N+]([O-])c1cc(C(F)(F)F)c(Cl)c([N+](=O)[O-])c1Nc1ncc(C(F)(F)F)cc1Cl [fluazinam]
pest or weed control at 0.06 ppm (Puccinia recondita; Example 14, dose rate 0.06 ppm): 0% | pest or weed control at 1 ppm (Puccinia recondita; Example 14, dose rate 1 ppm): 4% | pest or weed control at 4 ppm (Puccinia recondita; Example 14, dose rate 4 ppm): 17%

CC1=C(C(=O)Nc2ccccc2)SCCO1 [carboxin]
pest or weed control at 0.06 ppm (Puccinia recondita): 0% | pest or weed control at 0.25 ppm (Puccinia recondita): 0% | pest or weed control at 1 ppm (Puccinia recondita): 0% | pest or weed control at 4 ppm (Puccinia recondita): 4%

C=CC1(C)OC(=O)N(c2cc(Cl)cc(Cl)c2)C1=O (centres unmarked) [vinclozolin]
Observed Efficacy (Botrytis cinerea; Example 4, dose rate 10 ppm): 8% | Observed Efficacy (Botrytis cinerea; Example 7, dose rate 1 ppm): 0% | Observed Efficacy (Botrytis cinerea; Example 7, dose rate 10 ppm): 17%

COCC(=O)N(c1c(C)cccc1C)C(C)C(=O)OC (centres unmarked) [metalaxyl]
Observed Efficacy (Blumeria graminis [2]; Example 17, dose rate 0.06 ppm): 0% | Observed Efficacy (Blumeria graminis [2]; Example 17, dose rate 0.25 ppm): 0% | Observed Efficacy (Blumeria graminis [2]; Example 17, dose rate 1 ppm): 0% | Observed Efficacy (Blumeria graminis [2]; Example 17, dose rate 4 ppm): 0%

C[C@@]1(c2ccc(Oc3ccccc3)cc2)OC(=O)N(Nc2ccccc2)C1=O (racemic) [famoxadone]
pest or weed control at 0.06 ppm (Puccinia recondita; Example 19, dose rate 0.06 ppm): 0% | pest or weed control at 0.25 ppm (Puccinia recondita; Example 19, dose rate 0.25 ppm): 0% | pest or weed control at 1 ppm (Puccinia recondita; Example 19, dose rate 1 ppm): 31% | pest or weed control at 4 ppm (Puccinia recondita; Example 19, dose rate 4 ppm): 61% | Observed Efficacy (Blumeria graminis [2]; Example 18, dose rate 0.06 ppm): 0% | Observed Efficacy (Blumeria graminis [2]; Example 18, dose rate 0.25 ppm): 0% | Observed Efficacy (Blumeria graminis [2]; Example 18, dose rate 1 ppm): 0% | Observed Efficacy (Blumeria graminis [2]; Example 18, dose rate 4 ppm): 0%
